This note sets out measurements from US9388146B2, “Crystalline forms of tyrosine kinase inhibitors and their salts” (Purdue Pharma L.P., priority 2013, dated 2016).

Data set [1] in a line: Rat pharmacokinetics (plasma, LC-MS/MS, non-compartmental analysis). The class given is in vivo. Particulars: for bioavailability: oral. Here is the method: (§1) Compound I was dosed to nonfasted male CD IGS rats (weighting 180-250 g, Charles River Laboratories) by single intravenous (IV, n=3/group) or oral gavage (PO, n=4/group, including control rat group for drug-free blood and brain collection) administration at a nominal dose levels of 3 mg/kg (IV) or 5 mg/kg (IV) and 10, 50, 100 mg/kg (PO) respectively. Compound was formulated in either DMSO/Solutol® HS 15/phosphate buffered saline, pH 7.4 (PBS) for both IV and PO dosing, or 10% (w/v) Povidone K12 in water for IV dosing or 10% (w/v) Povidone K25 in water for PO dosing, or 18% (w/v) CrosPovidone in water for PO dosing. An intravenous profile was obtained by taking serial or terminal blood samples at 3, 10, 30, 60, 120, 240, 360, 1440 min post dose. An oral profile was obtained by taking serial or terminal blood samples at 10, 30, 60, 120, 240, 360, 480, 1440 min post dose.
(§2) Animals were sedated under general inhalant anesthesia (3% isoflurane) for blood collection by cardiac puncture. Blood aliquots (300-400 μL) were collected in tubes coated with lithium heparin, mixed gently, then kept on ice and centrifuged at 2,500×g for 15 minutes at 4° C., within 1 hour of collection. For control animals, blood was collected by cardiac puncture. The plasma was then harvested and kept frozen at −20° C. until further processing. Plasma Sample Collection from Cannulated Rats. Blood collection was carried out from the jugular vein catheter. Blood aliquots (300-400 μL) were collected in tubes coated with lithium heparin, mixed gently, then kept on ice and centrifuged at 2,500×g for 15 minutes at 4° C., within 1 hour of collection. For control animals, blood was collected by cardiac puncture. The plasma was then harvested and kept frozen at −20° C. until further processing.
(§3) Plasma and brain samples were subjected to quantitative analysis by LC-MS/MS using compound-specific mass transitions. Drug concentration-time profiles were generated and non-compartmental PK analysis (using WinNonlin) used to generate estimates of half-life (T1/2), clearance, volume of distribution (Vss), and oral bioavailability (F %) (Gabriesson, J. and Weiner, D. Pharmacokinetic and Pharmacodynamic Data Analysis: Concepts and Applications. Swedish Pharmaceutical Press. 1997). The concentrations of the test compound in brain (ng/g brain tissue) and in plasma (ng/mL) as well as the ratio of the brain concentration and the plasma concentration at each time point were determined and reported.

For another data set, the target named is TrkC (Homo sapiens, UniProt Q16288). The data set can be described thus: PathHunter whole cell functional assay, NT3 stimulated TrkC activation. The class given is cell-based. Particulars: triplicate.
In another data set the target is TrkB (Homo sapiens, UniProt Q16620). Kind of data set: PathHunter whole cell functional assay, BDNF stimulated TrkB activation. The class given is cell-based. As to conditions: triplicate.
Another data set relates to CCI rats. The data set can be described thus: Chronic constriction injury (CCI) model of neuropathic pain in rat. As to conditions: for observed side effects (drowsiness, motor incoordination, abnormality): oral dosing. The class given is in vivo. An excerpt: The CCI model is one of the most commonly used mono-neuropathic pain model firstly described in details by Bennett and Xie (Bennett G J, Xie Y K. Pain. 1988; 33(1):87-107). It mimics important clinical chronic pain symptoms such as mechanical allodynia and thermal hyperalgesia. Chronic constriction injury of the sciatic nerve was produced by tying four loose ligatures around the left sciatic nerve according to the method of Bennett and Xie. […] Calibrated von Frey filaments were used to determine the lowest mechanical (tactile) threshold required to evoke a brisk paw withdrawal reflex in the rat hindpaws. Rats were allowed to acclimatize in wire mesh cages for 15-20 min prior to von Frey testing. Assessment of paw withdrawal thresholds (PWTs) using von Frey filaments was undertaken prior to CCI-surgery (pre-surgery baseline on day 0). Before the drug dosing on day 14, the pre-dose baseline was recorded for each rat. […] Drug-naïve CCI-rats (n=4-6 per group) were used. The oral (PO) gavage vehicle was either 10% (w/v) Povidone K25 in water for PO dosing, or 18% (w/v) CrosPovidone in water for PO dosing, or 0.5% CMC-Na/0.1% Tween 80 in distilled water for PO dosing. The positive control gabapentin was dissolved in the vehicle and orally given at 100 mg/kg (by oral gavage). Test article was dissolved or suspended in the vehicle and orally given at 25, 50, 100 and 150 mg/kg. Each CCI-rat was administered a single oral dose of test article, gabapentin or vehicle control, 2 hours before assessment of PWT.

The nature of data set [2]: Accelerated stability tests by XRPD and Raman. The class given is physicochemical. As to conditions: 1 week. On the procedure: Approximately 2 mg of sample was gently compressed on the XRPD zero back ground single obliquely cut silica sample holder. The sample was then loaded into a D/MAX 2200 X-ray powder diffractometer (Rigaku) or a Philips X-Pert MPD diffractometer and analyzed using the following experimental conditions (Tube anode: Cu; Generator tension: 40 kV; Tube current: 40 mA; Wavelength alpha1: 1.54056 Å; Wavelength alpha2: 1.5444 Å; Start angle [2 theta]: 5; End angle [2 theta]: 50; and Continuous scan). For suspected novel forms a slightly slower scan speed was used over a range of 4-40° 2θ.
Samples were analyzed by a Nicolet Almega XR Dispersive Raman Microscope for its Raman spectrum using the following conditions (Exposure Time: 1.0 s; Acquisition No: 10; Pinhole Size: 25, 50 or 100 μm; Wavelength range: 2000˜300 cm^−1 (single grating); Laser: […] 100% power; Objective: 20×/0.40 or 50×/0.75 (magnifier/numerical aperture number)). Then the measured Raman spectra were corrected by baseline subtraction using the software OMNIC™ v7.3.

The nature of data set [3]: Rat brain and plasma concentration after IV dosing. The class given is in vivo. As to conditions: male, CD IGS, dose 3 and 5 mg/kg. On the procedure:
as §1, §2
Immediately after the blood sampling, rats were decapitated and the whole brains were quickly removed, rinsed with cold saline (0.9% NaCl, g/mL), surface vasculature ruptured, blotted with dry gauze, weighed and kept on ice until further processing within 1 hour of collection. Each brain was homogenized in 3 mL cold phosphate-buffered saline, pH 7.4 for 10 seconds on ice using Power Gen 125. The brain homogenate from each brain was then stored at −20° C. until further processing.
as §3

Data set [4] relates to CFA-induced rat inflammatory pain. The data set can be described thus: Rat CFA-induced inflammatory pain model. Particulars: 50 μL of 1 mM s.c. into paw 3 hours after CFA, FIG. 1. The class given is in vivo. On the procedure:
Hyperalgesia was induced by subcutaneously injecting 50 μL of CFA (Sigma-Aldrich, St. Louis, Mo., USA) into the plantar surface of the left hind paw of the rats using a 30-gauge hypodermic needle under sevoflurane anesthesia. The classical signs of inflammation, including edema and redness, for up the last day of tests were recorded. To assess the effect of test article on CFA-induced inflammatory pain, the rats were anesthetized with sevoflurane 3 hours after CFA injection and then injected 50 μL of either 1 mM test article (n=6) or Saline (n=4) subcutaneously (S.C.) into the same site as the CFA injection, using a 30-gauge hypodermic needle under sevoflurane anesthesia, according to published method (Ueda K., et al, J Pharmacol. Sci., 2010; 112(4):438-43). Paw withdrawal latencies (thermal hyperalgesia) are measured before and at […] 2, 4, and 7 days after CFA injection. Mechanical thresholds were also measured in the same way with either Formula 1 compound (n=6) or Saline (n=4) at similar different time points (for example, 1, 3 hour and 3 days). The noxious heat and mechanical thresholds were separately measured in each group of rats. The threshold was measured 3-5 times in each rat and then averaged. Stimulus interval was 5 min.

The subject of the next data set is SNL rats. The data set can be described thus: Spinal nerve ligation (SNL) mono-neuropathic pain model in rat. The class given is in vivo. As to conditions: oral administration. On the procedure: The surgical procedure will be performed according to the method firstly described by Kim and Chung (Kim S H, Chung J M. Pain. 1992; 50(3):355-63.). This procedure will result in tactile allodynia in the left hindpaw. […] The dose-response anti-allodynia effects of test compound: on day 14 after surgery, rats were treated with test article at one of four doses, vehicle or positive control by oral gavage, and PWT was determined by calibrated von Frey filaments at time points of 0 (right before the drug dosing, Pre-Dose Baseline), 0.5, 1, 2, 4 and 6 hr. The anti-allodynia effects of repeated administration of test article: Administration of test article was started on day 7 after surgery, once a day for 7 days. PWT was determined by calibrated von Frey filaments, 2 hour after test article dosing each day. After 7 days dosing, the measurement were continued, every other day without compound dosing for another 7 days. PWT was determined at the time points as given above.

Where [5] appears, read: male, CD IGS, plasma, IV, 3 mg/kg, mean.
[6] abbreviates: male, CD IGS, plasma, PO, 100 mg/kg, mean.

Like-named read-outs stand apart in the source and are kept apart here.

Chain of TrkB (Q16620 32-822, species assumed): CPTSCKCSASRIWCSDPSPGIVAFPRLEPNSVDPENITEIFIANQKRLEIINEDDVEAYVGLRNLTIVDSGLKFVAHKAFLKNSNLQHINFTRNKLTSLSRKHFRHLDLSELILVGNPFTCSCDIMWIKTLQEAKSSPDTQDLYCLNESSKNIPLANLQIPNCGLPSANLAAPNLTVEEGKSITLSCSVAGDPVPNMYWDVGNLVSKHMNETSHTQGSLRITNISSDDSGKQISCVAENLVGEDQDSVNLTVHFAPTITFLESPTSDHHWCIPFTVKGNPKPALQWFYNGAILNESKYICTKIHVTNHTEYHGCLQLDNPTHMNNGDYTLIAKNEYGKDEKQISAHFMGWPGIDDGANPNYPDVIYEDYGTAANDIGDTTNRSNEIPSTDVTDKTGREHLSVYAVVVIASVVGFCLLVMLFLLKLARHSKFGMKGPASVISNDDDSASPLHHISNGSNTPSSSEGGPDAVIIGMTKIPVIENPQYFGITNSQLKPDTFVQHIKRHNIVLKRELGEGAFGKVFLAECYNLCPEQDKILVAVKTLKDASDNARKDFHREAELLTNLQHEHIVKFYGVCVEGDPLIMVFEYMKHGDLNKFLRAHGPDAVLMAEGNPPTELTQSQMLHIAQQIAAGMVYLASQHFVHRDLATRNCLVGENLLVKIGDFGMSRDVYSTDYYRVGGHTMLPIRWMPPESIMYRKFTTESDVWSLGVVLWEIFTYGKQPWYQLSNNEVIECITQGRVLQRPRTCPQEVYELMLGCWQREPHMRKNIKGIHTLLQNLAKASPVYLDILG
Chain of TrkC (Q16288 32-839, species assumed): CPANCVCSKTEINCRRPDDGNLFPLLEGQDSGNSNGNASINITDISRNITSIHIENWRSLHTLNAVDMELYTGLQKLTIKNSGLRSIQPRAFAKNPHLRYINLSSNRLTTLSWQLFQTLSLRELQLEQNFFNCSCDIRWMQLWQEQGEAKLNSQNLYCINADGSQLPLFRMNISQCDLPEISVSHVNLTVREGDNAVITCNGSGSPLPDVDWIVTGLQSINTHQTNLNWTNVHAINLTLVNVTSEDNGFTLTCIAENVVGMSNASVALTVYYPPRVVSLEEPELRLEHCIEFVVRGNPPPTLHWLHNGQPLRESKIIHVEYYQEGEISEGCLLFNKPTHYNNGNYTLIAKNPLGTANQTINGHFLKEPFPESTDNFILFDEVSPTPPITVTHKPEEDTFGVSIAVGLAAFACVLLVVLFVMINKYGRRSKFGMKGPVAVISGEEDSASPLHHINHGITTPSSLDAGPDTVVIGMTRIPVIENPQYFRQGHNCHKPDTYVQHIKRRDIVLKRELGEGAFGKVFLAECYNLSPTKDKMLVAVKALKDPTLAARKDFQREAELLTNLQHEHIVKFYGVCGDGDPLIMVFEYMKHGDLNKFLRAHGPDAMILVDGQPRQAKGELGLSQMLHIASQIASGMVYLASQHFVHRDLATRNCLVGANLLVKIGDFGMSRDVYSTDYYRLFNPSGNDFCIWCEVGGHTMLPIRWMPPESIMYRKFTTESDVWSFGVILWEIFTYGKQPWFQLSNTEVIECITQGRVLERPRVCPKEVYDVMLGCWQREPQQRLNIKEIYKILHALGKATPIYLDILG

In data set [1] (male, CD IGS, plasma), `O=C(O)c1ccc(Nc2cc(N3CCN(C4CCCCC4)CC3)c3noc4c3c2C(=O)c2ccccc2-4)cc1` [Compound 701, 4-((3-(4-cyclohexylpiperazin-1-yl)-6-oxo-6H-anthra[1,9-cd]isoxazol-5-yl)amino)benzoic acid] yielded a bioavailability of less than 20%.
On to `O=C(O)c1ccc(Nc2cc(N3CCN(C4CCCCC4)CC3)c3noc4c3c2C(=O)c2ccccc2-4)cc1` [Compound C], for which the IC50 on TrkC and on TrkB was greater than 10 µM throughout.
Turning to `O=C([O-])c1ccc(Nc2cc(N3CCN(C4CCCCC4)CC3)c3noc4c3c2C(=O)c2ccccc2-4)cc1.[Na+]` [Compound I, Sodium 4-((3-(4-cyclohexylpiperazin-1-yl)-6-oxo-6H-anthra[1,9-cd]isoxazol-5-yl)amino)benzoate], in the data set on CCI rats, the “observed side effects (drowsiness, motor incoordination, abnormality)” value is “no such effect or other abnormality was observed”. The “more effective in suppressing mechanical allodynia compared to gabapentin” value in the data set on CCI rats (same oral dose of 100 mg/kg) is reported as “about 100%”. In addition, the “effect on mechanical allodynia (PWT, von Frey)” value with CCI rats (single oral dose 25, 50, 100 and 150 mg/kg, 2 hours before assessment, FIG. 2) was “significantly reduced mechanical allodynia”; in the data set with SNL rats it was “significantly reduced mechanical allodynia”. The “stability as measured by XRPD and Raman” value in data set [2] (40° C./75% RH) and in data set [2] (80° C.) was “no instability” throughout. In data set [1] (PO, 100 mg/kg, mean), this molecule showed an F of roughly 100%. The molecule also came in with a clearance in data set [1] (setting [5]) of 4 mL/min/kg. Further, the half-life was 1.08 h in data set [1] (setting [5]) and 2.07 h in data set [1] (setting [6]). Moreover, in data set [1] (male, CD IGS, plasma, IV, 3 mg/kg, mean, read-out: Vss), the Vd amounted to 0.287 L/kg. This molecule yielded a maximum concentration (Cmax) in data set [1] (setting [6]) of 66000 ng/mL. In data set [1] (male, CD IGS, plasma), the bioavailability lay in the range of 90 to 100%. For the same molecule, the concentration at 30 min is 153 ng/g in data set [3] (brain, 30 min, read-out: Brain concentration) and 11300 ng/mL in data set [3] (plasma, 30 min, read-out: Plasma Concentration). Also, the concentration at 60 min in data set [3] (brain, 60 min, read-out: Brain concentration) is 120 ng/g; in data set [3] (plasma, 60 min, read-out: Plasma Concentration), 8160 ng/mL. Also, the concentration at 180 min in data set [3] (brain, 180 min, read-out: Brain concentration) stood at 23 ng/g; in data set [3] (plasma, 180 min, read-out: Plasma Concentration), 1830 ng/mL. The Kp at 30 min in data set [3] (brain/plasma, 30 min, read-out: Ratio Brain/Plasma) is 0.014. In data set [3] (brain/plasma, 60 min, read-out: Ratio Brain/Plasma), the Kp at 60 min is 0.018. In data set [3] (brain/plasma, 180 min, read-out: Ratio Brain/Plasma), the Kp at 180 min stood at 0.019. The “analgesic effect (thermal hyperalgesia / mechanical threshold)” value in data set [4] is given as “efficacious in relieving the pain”.
In the case of `O=C([O-])c1ccc(Nc2cc(N3CCN(C4CCCCC4)CC3)c3noc4c3c2C(=O)c2ccccc2-4)cc1.[Na+]` [Form A, Sodium 4-((3-(4-cyclohexylpiperazin-1-yl)-6-oxo-6H-anthra[1,9-cd]isoxazol-5-yl)amino)benzoate], in data set [2] (40° C./75% RH and 80° C.), the “stability of the polymorphic form” value is “stable polymorphic form”.
For `NCC1(CC(=O)O)CCCCC1` [gabapentin, reference compound], the “observed side effects (drowsiness, motor incoordination, abnormality)” value in the data set with CCI rats is recorded as “drowsiness or motor incoordination”.

As usually defined, the bioavailability is dose-corrected exposure relative to a reference, in per cent. In general, IC50 refers to the point on the concentration scale where inhibition reaches its midpoint. The term clearance denotes the volume of plasma or blood freed of the substance per unit of time. By half-life is commonly meant how long it takes for the measured level to halve. A high value points to slow loss. What is called Cmax is the maximum level reached in the sampled fluid or tissue.
